The values that follow are results of earlier work, collected in US20090155363A1, “METHODS FOR ORAL ADMINISTRATION OF ACTIVE DRUGS” (priority 2007, published 2009).

Each structure is given as a SMILES string.

The conditions of the data set: drug mixed with foods such as applesauce or vegetable juice, relative to administration of a nizatidine capsule with water.

For the compound `CNC(=C[N+](=O)[O-])NCCSCc1csc(CN(C)C)n1` [nizatidine], the reduction of bioavailability was 30 to 40%.
